Earlier results on three molecules are cited in patent US9109266B2, “Process of producing sugar composition comprising D-psicose and D-allose via strong alkaline isomerization of D-glucose/D-fructose or alkaline pre-treatment of D-glucose/D-fructose followed by isomerization in the presence of a basic ion exchange resin” (MATSUTANI CHEMICAL INDUSTRY CO., LTD., priority 2009, dated 2015).

For series [1] the following is noted: for Body fat decrement ratio (%) / Body weight decrement ratio (%) / Feed intake decrement ratio (%): compared with control group; for reduction of blood sugar level / reduction of insulin level: reports 1 and 2.
The conditions of series [2]: non-patent reference 10 (report 4).
For series [3] the following is noted: D-psicose administration; non-patent reference 11.
The mark [4] stands for this setting: Report 2, D-allose at 3% in total solids.
Setting [5] is: Report 1, D-psicose at 5% in total solids.

Read-outs that look alike come from different tables or passages of the source.

As for `O=C[C@H](O)[C@H](O)[C@H](O)[C@H](O)CO` [D-allose], in series [1] (setting [4]), the “Body fat decrement ratio (%)” value is listed as 19%, the “Body weight decrement ratio (%)” value is reported as 17% and the “Feed intake decrement ratio (%)” value was 8%. For the same molecule, in series [1], the “reduction of blood sugar level” value is “No significant reduction” and the “reduction of insulin level” value is “No significant reduction”.

In the case of `O=C[C@@H](O)[C@@H](O)[C@H](O)[C@H](O)CO` [D-mannose], in series [2], the “contribution to body weight” value is “never makes any contribution” and the “contribution to the amount of feed intake” value is “never makes any contribution”.

Turning to `O=C(CO)[C@H](O)[C@H](O)[C@H](O)CO` [D-psicose], in series [1] (setting [5]), the “Body fat decrement ratio (%)” value is listed as 15%, the “Body weight decrement ratio (%)” value was 6% and the “Feed intake decrement ratio (%)” value is 6%. Further, in series [1], the “reduction of blood sugar level” value is “No significant reduction” and the “reduction of insulin level” value is recorded as “No significant reduction”. In series [3], the “intra-day variation of insulin level” value is “no reduction of insulin level”.
